Data taken from US5824521A, “Saccharide composition containing trehalulose, its preparation and uses” (Kabushiki Kaisha Hayashibara Seibutsu Kagaku Kenkyujo, priority 1996, dated 1998).
Counter-ions that a name gives are not always drawn.

How the values were obtained:
[1] = tested on: maltose/trehalose converting enzymes; conditions: one mM; cited from earlier work
dd-strain mice = assay: Acute toxicity test; type: in vivo; conditions: oral, 7-week-old, higher dose test impossible
Excerpt: No mouse died up to a dose of 15 g/kg mouse by weight and a higher dose test was impossible. Thus the toxicity of the saccharide is extremely low.

[2] = in vivo, po
Method: In accordance with the method as reported by H. Atsuji et al. in "Journal of Clinical Nutrition", Vol.41, No.2, pp.200-208 (1972), 30 g of the saccharide powder rich in trehalulose with a purity of 98%, d.s.b., in Experiment 8 was prepared into a 20 w/v % aqueous solution which was then orally administered to 3 healthy male volunteers, and their blood were sampled at a prescribed time interval, followed by assaying the blood sugar- and insulin-levels. As a control glucose was used.

α-glucosidase from yeast = α-glucosidase from yeast (Saccharomyces cerevisiae, UniProt P53341); assay: Hydrolysis by enzyme: α-glucosidase; type: biochemical; conditions: into glucose and fructose
Method: (§1) To identify the substance "X", the following confirmation tests were conducted using a high purity saccharide powder containing trehalulose prepared in Experiment 8: […]

invertase from yeast = biological target: T1, invertase from yeast (Saccharomyces cerevisiae, UniProt P00724); assay: Hydrolysis by enzyme: invertase; type: biochemical
T1 sequence (P00724 20-532): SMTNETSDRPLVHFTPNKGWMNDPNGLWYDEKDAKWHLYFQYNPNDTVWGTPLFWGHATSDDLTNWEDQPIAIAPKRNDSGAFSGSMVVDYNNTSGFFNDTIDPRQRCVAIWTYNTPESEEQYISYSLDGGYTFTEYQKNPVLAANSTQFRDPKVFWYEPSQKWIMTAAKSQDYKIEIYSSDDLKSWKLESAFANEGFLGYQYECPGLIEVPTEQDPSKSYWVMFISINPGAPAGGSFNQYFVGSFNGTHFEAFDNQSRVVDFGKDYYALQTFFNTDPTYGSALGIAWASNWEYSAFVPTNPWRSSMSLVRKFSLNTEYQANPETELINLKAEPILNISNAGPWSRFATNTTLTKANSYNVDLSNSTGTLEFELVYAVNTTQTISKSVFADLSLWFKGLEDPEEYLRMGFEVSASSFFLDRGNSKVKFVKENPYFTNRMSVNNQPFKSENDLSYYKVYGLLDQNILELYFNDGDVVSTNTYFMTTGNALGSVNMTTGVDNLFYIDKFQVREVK
Method: as §1

α-glucosidase from yeast, sequence (P53341 whole entry): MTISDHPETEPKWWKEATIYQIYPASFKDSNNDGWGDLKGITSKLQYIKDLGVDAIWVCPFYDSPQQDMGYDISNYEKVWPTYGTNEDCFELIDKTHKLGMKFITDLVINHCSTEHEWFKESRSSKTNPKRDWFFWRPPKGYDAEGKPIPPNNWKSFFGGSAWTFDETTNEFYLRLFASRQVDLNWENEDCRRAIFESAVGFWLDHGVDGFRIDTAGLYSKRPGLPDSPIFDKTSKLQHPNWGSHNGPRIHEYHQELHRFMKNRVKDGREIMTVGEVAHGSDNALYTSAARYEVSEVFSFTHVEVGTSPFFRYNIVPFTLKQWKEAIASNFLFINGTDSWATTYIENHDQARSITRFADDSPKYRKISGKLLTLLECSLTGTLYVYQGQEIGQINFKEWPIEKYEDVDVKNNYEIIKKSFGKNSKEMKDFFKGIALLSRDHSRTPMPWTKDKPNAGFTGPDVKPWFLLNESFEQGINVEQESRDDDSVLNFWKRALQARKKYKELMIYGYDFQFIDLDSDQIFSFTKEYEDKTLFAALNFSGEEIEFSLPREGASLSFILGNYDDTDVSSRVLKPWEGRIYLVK

In the case of `[Cu+2]` [Cu^++], the “Inhibition of enzyme activity” value [1] is given as “inhibited”.
In the case of `[Hg+2]` [Hg^++], the “Inhibition of enzyme activity” value [1] is given as “inhibited”.
In the case of `O=C(CO[C@H]1O[C@H](CO)[C@@H](O)[C@H](O)[C@H]1O)[C@@H](O)[C@H](O)[C@H](O)CO` [Trehalulose, 1-O-α-D-glucopyranosyl-D-fructose], the “Acute toxicity: lethal dose (no mouse died up to this dose)” value (dd-strain mice) is reported as > 15000 mg/kg, the “Time of highest blood sugar-level after the administration” value [2] is reported as 0.5 to 1 h and the “Time of highest insulin-level after the administration” value [2] is reported as 0.5 to 1 h. For the same compound, the “Hydrolysis by α-glucosidase from yeast” value (α-glucosidase from yeast) was “Hydrolyzed” and the “Hydrolysis by an invertase from yeast” value (invertase from yeast) was “Not hydrolyzed”.
For `NC(CO)(CO)CO` [Tris-HCl buffer], the “Inhibition of enzyme activity” value [1] is given as “inhibited”.
